Reference: patent US20100099756A1, “USES OF INCENSOLE, INCENSOLE ACETATE AND DERIVATIVES THEREOF” (YISSUM RESEARCH DEVELOPMENT COMPANY OF THE HEBREW …, priority 2006, published 2010)
Values belong to the compound of their own block, whether it stands above or below them.

Assays:
Type in all cases: cell-based
[1] = test system: IκBα degradation; test: IκBα degradation in TNFα-stimulated HeLa cells (Western blot); conditions: HeLa cells pre-incubated 2 hrs, then TNFα 20 ng/ml for 20 minutes
Protocol: HeLa cells were pre-incubated with IA (FIG. 1A) or IN (FIG. 1B) at the indicated concentrations for 2 hrs prior to 20 minutes exposure to TNFα (20 ng/ml). At least three more experiments were repeated with highest indicated dose, resulting similarly.
IκBα Degradation. HeLa cells were pre-incubated with IA (50 μg/ml, dissolved in ethanol) for 2 hrs, and then stimulated for 20 minutes with TNFα (20 ng/ml, Emeryville, Calif., USA). After removing the slides from plates for immonostaining (see below), proteins were extracted from remaining cells in the plates. Proteins were extracted from cells in NP-40 lysis buffer. Total protein concentration was determined using the Bradford method. Lysates were then analyzed either by Western blotting (WB).
Western Blot (WB). Following separation by SDS-PAGE, proteins were blotted to a polyvinylidene difluoride (PVDF) membrane (Millipore). The membrane was blocked in 5% (w/v) milk powder and then incubated in TBST containing the primary antibody and 2% (w/v) milk powder. All phospho-specific antibodies were purchased from Cell signaling Inc. αIκBa, αp65 and αCOX2 antibodies from Santa Cruz Inc. (California, USA). After binding of an appropriate secondary antibody coupled to horseradish peroxidase, proteins were visualized by enhanced chemiluminiscence according to the instructions of the manufacturer (Amersham Lifescience).

[2] = biological target: T1, TRPV3 (Mus musculus, UniProt Q8K424); test: Calcium imaging of TRPV3+/+ and TRPV3−/− primary keratinocytes; parameters: endogenous in cells; host or cells: primary keratinocytes from TRPV3+/+ mouse pups (day 1-4); TRPV3-/- cells as control; conditions: IA 500 μM; camphor 10 mM
T1 sequence (Q8K424 1-791): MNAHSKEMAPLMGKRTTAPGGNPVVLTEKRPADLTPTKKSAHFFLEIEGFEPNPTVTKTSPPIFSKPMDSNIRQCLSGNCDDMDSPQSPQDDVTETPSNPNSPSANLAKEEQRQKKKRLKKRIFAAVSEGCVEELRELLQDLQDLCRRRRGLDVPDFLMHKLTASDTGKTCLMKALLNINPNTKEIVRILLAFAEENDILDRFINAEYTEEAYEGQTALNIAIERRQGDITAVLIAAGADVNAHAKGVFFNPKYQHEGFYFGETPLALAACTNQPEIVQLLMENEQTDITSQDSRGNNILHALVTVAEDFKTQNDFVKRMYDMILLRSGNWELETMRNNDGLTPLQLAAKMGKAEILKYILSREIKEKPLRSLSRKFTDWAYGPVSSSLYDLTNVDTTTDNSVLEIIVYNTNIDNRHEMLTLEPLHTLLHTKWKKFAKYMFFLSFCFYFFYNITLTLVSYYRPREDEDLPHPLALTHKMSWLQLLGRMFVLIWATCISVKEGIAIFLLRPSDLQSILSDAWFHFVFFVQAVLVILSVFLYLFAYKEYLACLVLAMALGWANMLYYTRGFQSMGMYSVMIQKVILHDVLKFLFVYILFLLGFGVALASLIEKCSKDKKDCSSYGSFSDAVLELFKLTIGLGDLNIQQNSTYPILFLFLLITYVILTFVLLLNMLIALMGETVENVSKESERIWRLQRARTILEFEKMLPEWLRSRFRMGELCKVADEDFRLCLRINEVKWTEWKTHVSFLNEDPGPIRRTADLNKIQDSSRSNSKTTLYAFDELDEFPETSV
From the text: (§1) HEK293 cells were transiently transfected with a rat TRPV2 plasmid using lipofectamine reagent (Invitrogen, Carlsbad, Calif.) according to manufacturer's protocol. They were then maintained in Dulbecco's modified Eagle Medium/10% fetal calf serum supplemented with Penicillin, Streptomycin, and L-glutamine. Primary keratinocytes from TRPV3-deficient and TRPV3+/+ mouse pups (day 1-4) were harvested and cultured as described previously [Chung, M. K., Lee, H., Mizuno, A., Suzuki, M. & Caterina, M. J. TRPV3 and TRPV4 mediate warmth-evoked currents in primary mouse keratinocytes. J. Biol. Chem. 279, 21569-21575 (2004)].
Calcium imaging of TRPV3^+/+ and TRPV3^−/− keratinocytes. Primary keratinocytes from TRPV3-deficient and WT mouse pups (day 1-4) were harvested and cultured as described [Chung, M. K., Lee, H., Mizuno, A., Suzuki, M. & Caterina, M. J. TRPV3 and TRPV4 mediate warmth-evoked currents in primary mouse keratinocytes. J. Biol. Chem. 279, 21569-21575 (2004)].
Cells were plated on glass coverslips (10^5/cm^2) and incubated for 48-60 h, then loaded with fura-2 AM (20 μM, 0.04% pleuronic acid, 32° C. for 1 h) in imaging buffer containing (in mM): 130 NaCl, 2.5 CaCl2, 0.6 MgCl2, 10 HEPES, 1.2 NaHCO3, 10 glucose, pH 7.45. Ratiometric Ca^2+ imaging was performed as previously described [O'dell, D. K., Rimmerman, N., Pickens, S. R. & Walker J. M. Fatty acyl amides of endogenous tetrahydroisoquinolines are active at the recombinant human TRPV1 receptor. Bioorg. Med. Chem. 15, 6164-6169 (2007)]. Drug was added to the bath following a period of baseline recording. Calcium measurements were made from 30 randomly selected cells per coverslip.
Data analysis of calcium imaging data. Analysis of calcium imaging data was done using a non-linear regression curve fit (Graphpad 4 Prism, San Diego, Calif.). t tests and one way ANOVA were calculated using SPSS (Chicago, Ill.). […] Averaged drug responses over 30 randomly selected cells per coverslip were analyzed with two-tailed unpaired t tests.

[3] = biological target: T2, rat TRPV4 (Rattus norvegicus, UniProt Q9ERZ8); test: Calcium imaging of TRPV4 transfected HEK293 cells; conditions: IA 100 μM, compared to vehicle
T2 construct: expressed in transfected cells; host or cells: HEK293 cell line
T2 sequence (Q9ERZ8 whole entry): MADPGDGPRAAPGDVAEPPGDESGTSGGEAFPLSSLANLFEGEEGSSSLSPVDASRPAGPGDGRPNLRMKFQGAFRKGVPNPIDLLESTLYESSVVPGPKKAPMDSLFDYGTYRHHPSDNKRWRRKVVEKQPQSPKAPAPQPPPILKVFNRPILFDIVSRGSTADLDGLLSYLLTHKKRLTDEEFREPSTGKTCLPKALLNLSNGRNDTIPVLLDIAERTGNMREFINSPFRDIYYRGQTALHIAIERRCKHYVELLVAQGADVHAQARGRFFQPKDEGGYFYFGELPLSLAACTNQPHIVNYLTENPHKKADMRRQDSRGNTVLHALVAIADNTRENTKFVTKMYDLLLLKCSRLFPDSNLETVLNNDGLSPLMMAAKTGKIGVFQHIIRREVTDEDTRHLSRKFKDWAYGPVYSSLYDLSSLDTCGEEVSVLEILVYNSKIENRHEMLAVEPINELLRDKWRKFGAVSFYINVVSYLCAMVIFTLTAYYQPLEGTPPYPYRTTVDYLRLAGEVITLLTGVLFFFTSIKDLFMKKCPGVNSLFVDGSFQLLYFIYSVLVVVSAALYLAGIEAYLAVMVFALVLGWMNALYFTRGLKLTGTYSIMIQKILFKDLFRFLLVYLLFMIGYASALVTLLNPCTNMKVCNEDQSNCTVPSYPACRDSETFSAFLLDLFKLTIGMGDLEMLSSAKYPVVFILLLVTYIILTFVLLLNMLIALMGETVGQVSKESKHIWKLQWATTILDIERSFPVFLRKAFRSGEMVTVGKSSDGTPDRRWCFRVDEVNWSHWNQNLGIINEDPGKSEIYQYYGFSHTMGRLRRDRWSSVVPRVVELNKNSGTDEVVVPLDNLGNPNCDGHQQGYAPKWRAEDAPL
Protocol: (§2) All error bars indicate SEM; p values in all subfigures but c represent analysis with one-way ANOVA Bonferroni's post hoc.
(§3) TRPV3-YFP [O'dell, D. K., Rimmerman, N., Pickens, S. R. & Walker J. M. Fatty acyl amides of endogenous tetrahydroisoquinolines are active at the recombinant human TRPV1 receptor. Bioorg. Med. Chem. 15, 6164-6169 (2007)], TRPV4 and mock-transfected cell lines were cultured in DMEM 1× with L-glutamine (Mediatech, Inc. Herndon, Va.), containing 1% penicillin-streptomycin (Invitrogen, Carlsbad, Calif.) and 10% foetal bovine serum.
(§4) Calcium imaging of HEK 293 cells. TRPV1, TRPV3, and TRPV4 expressing HEK293 cells were plated 24-48 h before imaging in 96 well plates, loaded with 3 μM Fura-2 AM and imaged as previously described [O'dell, D. K., Rimmerman, N., Pickens, S. R. & Walker J. M. Fatty acyl amides of endogenous tetrahydroisoquinolines are active at the recombinant human TRPV1 receptor. Bioorg. Med. Chem. 15, 6164-6169 (2007)].

[4] = biological target: T3, mouse TRPV3-YFP (Mus musculus, UniProt Q8K424); test: Whole-cell voltage-clamp, TRPV3-YFP expressing HEK293 cells; conditions: IA 200 μM; 2-APB 100 μM; charge −85 to −45 mV
T3 construct: expressed in transfected cells
T3 sequence (Q8K424 1-791): T1 sequence (Q8K424 1-791)
Protocol: (§5) Electrophysiological recording. Currents were recorded using whole-cell voltage-clamp. Pipettes were pulled from microcapillary glass (A-M Systems). A coverslip containing cells was transferred to a 300 μL chamber that was constantly perfused (1-2 mL/min) with external solution. Voltage protocols were generated and data were digitized and recorded using Pulse (HEKA Elektronik) software in conjunction with an Axopatch 200A amplifier (Axon Instruments), and the data analyzed using an in-house Visual Basic (Microsoft) analysis program.
(§6) The external solution contained (in mM): 120 NaCl, 5 KCl, 1 MgCl2, 2 CaCl2, 10 Glucose and 20 HEPES, pH 7.4 with NaOH. The measured charge (pC) was defined as the charge elicited between -85 and -45 mV by a ramping voltage stimulus (−85 mV to +35 mV, 0.54 mV/msec; holding potential -55 mV). Currents were sampled at 5 kHz. Experimental and control cells were alternated whenever possible. Control values were obtained from adjacent cells with no detectable YFP fluorescence, presumed to be non-TRPV3-expressing.

[5] = test system: mouse TRPV3-YFP; test: as above; conditions: IA 200 μM; 2-APB 100 μM; cells not expressing TRPV3
Protocol: as §5, §6

[6] = biological target: T4, rat-TRPV2 (Rattus norvegicus, UniProt Q9WUD2); test: Calcium imaging of HEK293 cells transiently transfected with rat-TRPV2; conditions: IA 100 μM
T4 construct: expressed in transfected cells; host or cells: HEK293 (transient, lipofectamine)
T4 sequence (Q9WUD2 whole entry): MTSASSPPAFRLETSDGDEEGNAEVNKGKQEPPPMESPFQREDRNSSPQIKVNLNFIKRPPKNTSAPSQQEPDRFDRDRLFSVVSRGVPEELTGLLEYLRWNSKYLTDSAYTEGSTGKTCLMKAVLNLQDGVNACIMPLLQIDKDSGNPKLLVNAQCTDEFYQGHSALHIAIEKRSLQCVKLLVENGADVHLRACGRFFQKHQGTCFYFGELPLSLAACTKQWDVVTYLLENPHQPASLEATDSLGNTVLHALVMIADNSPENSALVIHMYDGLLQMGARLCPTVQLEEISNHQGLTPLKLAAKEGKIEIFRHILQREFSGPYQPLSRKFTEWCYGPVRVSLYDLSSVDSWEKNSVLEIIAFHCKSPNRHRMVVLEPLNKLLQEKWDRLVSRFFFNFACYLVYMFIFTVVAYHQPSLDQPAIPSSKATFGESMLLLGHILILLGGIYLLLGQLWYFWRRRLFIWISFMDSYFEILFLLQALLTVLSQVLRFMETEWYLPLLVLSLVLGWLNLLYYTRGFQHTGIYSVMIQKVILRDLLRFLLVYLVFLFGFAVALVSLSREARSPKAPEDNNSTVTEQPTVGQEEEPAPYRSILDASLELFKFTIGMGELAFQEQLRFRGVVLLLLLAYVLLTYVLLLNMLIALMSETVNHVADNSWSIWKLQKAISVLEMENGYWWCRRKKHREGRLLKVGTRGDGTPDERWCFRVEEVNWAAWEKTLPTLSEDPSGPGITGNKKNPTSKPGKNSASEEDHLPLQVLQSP
From the text: as §2, §1
(§7) For single cell calcium imaging, HEK293-rat TRPV2 and HEK293-mouse TRPV3-YFP expressing cells were plated on collagen-coated glass cover slips. Cells were loaded for 60 min with 3 μM Fura-2 AM.

[7] = biological target: T3, mouse TRPV3-YFP; test: Calcium imaging of HEK293 cells expressing mouse TRPV3-YFP; conditions: IA 100 μM; 2-APB positive control
Protocol: as §2
as §3, with “Bioorg.” left out
as §4, with “Bioorg.” left out
as §7
Data analysis of calcium imaging data. Analysis of calcium imaging data was done using a non-linear regression curve fit (Graphpad 4 Prism, San Diego, Calif.). t tests and one way ANOVA were calculated using SPSS (Chicago, Ill.). In the keratinocyte experiments, drug-induced response for each cell was taken as the maximal post-drug measurements over time minus the average of the last 5 pre-drug measurements. Averaged drug responses over 30 randomly selected cells per coverslip were analyzed with two-tailed unpaired t tests.

[8] = biological target: TRPV1 (Homo sapiens, UniProt Q8NER1); test: Calcium imaging of TRPV1-transfected HEK293 cells; conditions: IA 100 μM, compared to vehicle
Sequence of TRPV1 (Q8NER1 whole entry): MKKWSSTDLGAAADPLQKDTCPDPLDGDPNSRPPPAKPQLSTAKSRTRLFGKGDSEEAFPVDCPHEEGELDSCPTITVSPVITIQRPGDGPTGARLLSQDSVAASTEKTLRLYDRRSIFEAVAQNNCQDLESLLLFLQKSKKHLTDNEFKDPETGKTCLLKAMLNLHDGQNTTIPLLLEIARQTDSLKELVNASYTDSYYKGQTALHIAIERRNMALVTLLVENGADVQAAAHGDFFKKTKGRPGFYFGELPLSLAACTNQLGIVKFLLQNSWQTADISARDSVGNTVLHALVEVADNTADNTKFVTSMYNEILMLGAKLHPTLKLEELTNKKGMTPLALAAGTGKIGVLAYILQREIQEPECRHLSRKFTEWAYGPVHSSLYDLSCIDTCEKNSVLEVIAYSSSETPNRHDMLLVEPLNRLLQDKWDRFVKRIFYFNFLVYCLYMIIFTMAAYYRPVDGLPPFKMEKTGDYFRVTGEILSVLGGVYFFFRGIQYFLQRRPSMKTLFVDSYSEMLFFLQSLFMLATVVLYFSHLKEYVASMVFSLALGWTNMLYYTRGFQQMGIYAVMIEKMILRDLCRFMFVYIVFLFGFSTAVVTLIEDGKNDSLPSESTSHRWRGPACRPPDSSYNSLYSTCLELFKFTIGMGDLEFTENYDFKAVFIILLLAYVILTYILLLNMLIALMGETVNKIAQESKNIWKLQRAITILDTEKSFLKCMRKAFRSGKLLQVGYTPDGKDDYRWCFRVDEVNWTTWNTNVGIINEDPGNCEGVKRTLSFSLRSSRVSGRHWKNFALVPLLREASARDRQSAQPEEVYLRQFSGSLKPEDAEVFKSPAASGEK
Protocol: as §2
Human HEK 293 cells stably expressing TRPV1 were a kind gift from Merck Research Laboratories (Whitehouse Station, N.J.). Cells were cultured in minimal essential medium, Eagle, modified with non-essential amino acids, 1 mM sodium pyruvate, 2 mM L-glutamine and 1.5 g/L sodium bicarbonate (ATCC, Mabassas, Va.), containing 1% Penicillin-streptomycin, and 10% foetal bovine serum. Cells were passaged three times a week using Trypsin-EDTA 1× (Invitrogen, Carlsbad, Calif.) and grown under 5% CO2 at 37° C.
as §4, with “Bioorg.” left out

SMILES: C/C1=C\CC2(C(C)C)CCC(C)(O2)C(O)CC/C(C)=C/CC1 (centres unmarked) [IN, incensole]
IκBα degradation [1]: inhibited IκBα degradation in a dose dependent manner

SMILES: CCCCCCCCCC(=O)O[C@@H]1[C@@H](C)[C@@]2(O)[C@@H](C=C(CO)C[C@@]3(O)C(=O)C(C)=C[C@@H]23)[C@@H]2C(C)(C)[C@]12OC(=O)CCCCCCCCC [4αPDD, reference compound]
calcium influx in TRPV4 transfected HEK293 cells [3]: robust calcium increase

Now from value to compound, other results behind:

calcium influx in primary keratinocytes from WT mice [2]: showed a similar effect
SMILES: CC12CCC(CC1=O)C2(C)C (centres unmarked) [Camphor, camphor, reference compound]

current activation in TRPV3(+) HEK293 cells [4]: activates currents | calcium influx in rat-TRPV2 transfected HEK293 cells [6]: robustly increased calcium | calcium influx vs vehicle [7]: evoked robust calcium increases
SMILES: NCCOB(c1ccccc1)c1ccccc1 [2-APB, 2-aminoethyl diphenylborinate, reference compound]
current activation in TRPV3(−) control cells [5]: not in TRPV3(−) cells

calcium influx in TRPV1-transfected HEK293 cells [8]: robust calcium increase
SMILES: COc1cc(CNC(=O)CCCC/C=C/C(C)C)ccc1O [Capsaicin, reference compound]
